Assay results reported in ChEMBL document CHEMBL2062477, “Dual-Specificity Phosphatase CDC25A/B Inhibitor Identified from a Focused Library with Nonelectrophilic Core Structure” (ACS Med Chem Lett, 2012).

Key:
[1] = molecular target: T1, M-phase inducer phosphatase 3 (Homo sapiens, UniProt P30307); experiment: Inhibition of CDC25C
T1 sequence (P30307 whole entry): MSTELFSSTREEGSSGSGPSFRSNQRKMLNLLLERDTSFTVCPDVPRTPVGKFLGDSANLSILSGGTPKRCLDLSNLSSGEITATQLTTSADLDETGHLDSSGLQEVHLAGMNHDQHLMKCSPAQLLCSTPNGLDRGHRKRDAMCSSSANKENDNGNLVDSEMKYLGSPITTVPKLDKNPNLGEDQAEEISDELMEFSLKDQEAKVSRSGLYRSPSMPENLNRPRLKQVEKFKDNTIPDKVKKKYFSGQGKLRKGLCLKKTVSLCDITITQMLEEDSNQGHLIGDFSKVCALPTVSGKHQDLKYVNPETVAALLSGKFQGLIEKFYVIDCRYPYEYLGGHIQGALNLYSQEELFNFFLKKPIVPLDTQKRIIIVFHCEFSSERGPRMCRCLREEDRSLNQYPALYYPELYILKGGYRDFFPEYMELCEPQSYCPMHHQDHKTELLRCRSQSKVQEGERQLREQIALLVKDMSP

[2] = molecular target: T2, M-phase inducer phosphatase 1 (Homo sapiens, UniProt P30304); experiment: Inhibition of CDC25A
T2 sequence (P30304 whole entry): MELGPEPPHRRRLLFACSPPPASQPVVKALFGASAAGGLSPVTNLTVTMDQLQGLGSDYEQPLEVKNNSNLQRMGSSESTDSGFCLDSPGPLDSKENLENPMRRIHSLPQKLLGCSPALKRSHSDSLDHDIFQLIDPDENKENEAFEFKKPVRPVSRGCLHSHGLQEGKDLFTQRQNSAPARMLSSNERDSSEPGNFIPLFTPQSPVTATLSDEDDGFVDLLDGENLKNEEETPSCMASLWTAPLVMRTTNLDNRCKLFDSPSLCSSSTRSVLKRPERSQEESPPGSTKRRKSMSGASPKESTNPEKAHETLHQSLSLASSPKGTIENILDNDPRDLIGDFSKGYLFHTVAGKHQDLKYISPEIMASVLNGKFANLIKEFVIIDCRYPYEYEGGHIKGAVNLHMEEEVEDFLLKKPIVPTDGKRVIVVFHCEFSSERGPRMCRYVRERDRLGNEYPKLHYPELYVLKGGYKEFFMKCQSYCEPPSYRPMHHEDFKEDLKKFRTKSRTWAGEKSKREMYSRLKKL

[3] = molecular target: T3, Dual specificity protein phosphatase 6 (Homo sapiens, UniProt Q16828); experiment: Inhibition of MKP3
T3 sequence (Q16828 whole entry): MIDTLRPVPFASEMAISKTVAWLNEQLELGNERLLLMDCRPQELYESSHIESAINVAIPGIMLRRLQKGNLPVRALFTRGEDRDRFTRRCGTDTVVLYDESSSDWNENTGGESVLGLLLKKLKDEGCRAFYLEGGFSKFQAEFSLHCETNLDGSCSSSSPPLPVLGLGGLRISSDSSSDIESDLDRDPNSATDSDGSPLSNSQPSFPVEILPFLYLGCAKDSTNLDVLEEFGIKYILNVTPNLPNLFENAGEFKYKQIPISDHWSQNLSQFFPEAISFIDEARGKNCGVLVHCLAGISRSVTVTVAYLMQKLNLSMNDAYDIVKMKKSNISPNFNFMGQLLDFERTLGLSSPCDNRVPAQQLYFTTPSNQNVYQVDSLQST

[4] = molecular target: T4, M-phase inducer phosphatase 2 (Homo sapiens, UniProt P30305); experiment: Inhibition of CDC25B
T4 sequence (P30305 whole entry): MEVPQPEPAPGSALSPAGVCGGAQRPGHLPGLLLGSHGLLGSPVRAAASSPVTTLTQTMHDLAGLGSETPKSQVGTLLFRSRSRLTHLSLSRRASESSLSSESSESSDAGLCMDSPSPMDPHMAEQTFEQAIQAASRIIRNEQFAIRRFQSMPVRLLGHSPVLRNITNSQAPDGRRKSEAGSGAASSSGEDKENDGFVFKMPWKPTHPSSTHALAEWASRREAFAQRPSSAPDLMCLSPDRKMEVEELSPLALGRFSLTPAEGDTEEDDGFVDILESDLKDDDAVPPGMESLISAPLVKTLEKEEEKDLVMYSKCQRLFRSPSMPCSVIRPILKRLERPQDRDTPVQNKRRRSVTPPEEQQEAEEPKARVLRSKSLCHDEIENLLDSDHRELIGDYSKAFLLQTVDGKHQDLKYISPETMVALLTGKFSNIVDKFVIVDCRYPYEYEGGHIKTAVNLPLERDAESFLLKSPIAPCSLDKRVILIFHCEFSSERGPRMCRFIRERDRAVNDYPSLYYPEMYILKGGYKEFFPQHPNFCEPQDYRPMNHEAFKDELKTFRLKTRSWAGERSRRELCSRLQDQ

[5] = molecular target: Dual specificity protein phosphatase 3 (Homo sapiens, UniProt P51452); experiment: Inhibition of VHR
[6] = molecular target: T5, Dual specificity protein phosphatase 1 (Homo sapiens, UniProt P28562); experiment: Inhibition of MKP1
T5 sequence (P28562 whole entry): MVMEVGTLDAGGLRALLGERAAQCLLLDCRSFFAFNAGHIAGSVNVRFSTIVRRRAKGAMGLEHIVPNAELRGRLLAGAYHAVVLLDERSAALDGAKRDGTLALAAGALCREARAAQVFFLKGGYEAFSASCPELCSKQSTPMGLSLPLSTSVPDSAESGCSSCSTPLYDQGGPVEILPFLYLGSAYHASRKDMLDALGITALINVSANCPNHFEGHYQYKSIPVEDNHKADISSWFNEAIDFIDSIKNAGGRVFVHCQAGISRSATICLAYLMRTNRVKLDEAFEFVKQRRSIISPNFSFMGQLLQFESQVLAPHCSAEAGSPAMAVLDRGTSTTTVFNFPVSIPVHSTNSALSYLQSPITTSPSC

[7] = molecular target: T6, Tyrosine-protein phosphatase non-receptor type 1 (Homo sapiens, UniProt P18031); experiment: Inhibition of PTP1B
T6 sequence (P18031 whole entry): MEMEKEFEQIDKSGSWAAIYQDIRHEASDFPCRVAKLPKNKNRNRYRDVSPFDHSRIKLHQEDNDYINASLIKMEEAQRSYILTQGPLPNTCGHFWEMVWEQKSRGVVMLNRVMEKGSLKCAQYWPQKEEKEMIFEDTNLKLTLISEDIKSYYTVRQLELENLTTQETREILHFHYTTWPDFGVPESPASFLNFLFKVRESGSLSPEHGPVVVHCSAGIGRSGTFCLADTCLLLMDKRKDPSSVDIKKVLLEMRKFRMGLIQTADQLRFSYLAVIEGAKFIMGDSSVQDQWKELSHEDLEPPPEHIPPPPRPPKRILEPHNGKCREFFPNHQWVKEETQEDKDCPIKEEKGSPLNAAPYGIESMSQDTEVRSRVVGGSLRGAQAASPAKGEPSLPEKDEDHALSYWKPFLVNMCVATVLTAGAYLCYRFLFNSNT

[8] = system: HL-60; experiment: cells; details: Homo sapiens, HL-60, 48 h

Sequence of Dual specificity protein phosphatase 3 (P51452 whole entry): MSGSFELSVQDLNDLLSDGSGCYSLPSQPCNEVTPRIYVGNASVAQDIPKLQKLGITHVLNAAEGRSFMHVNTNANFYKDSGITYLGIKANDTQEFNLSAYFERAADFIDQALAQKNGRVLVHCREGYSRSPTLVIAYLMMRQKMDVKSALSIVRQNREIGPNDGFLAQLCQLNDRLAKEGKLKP

| IC50 [1] [µM] | IC50 [2] [µM] | IC50 [3] [µM] | IC50 [4] [µM] | IC50 [5] [µM] | IC50 [6] [µM] | IC50 [7] [µM] | IC50 [8] [µM] | SMILES |
| --- | --- | --- | --- | --- | --- | --- | --- | --- |
| > 100 | 12.7 | > 100 | 8.61 | 8.99 | > 100 | > 100 | – | CCCCCCCCCCCCCCCC(NCc1ccccc1C)=C1C(=O)OC(CO)C1=O (mixture of isomers) |
| > 100 | > 100 | > 100 | > 100 | 1.43 | > 100 | > 100 | 12 | CCCCCCCCCCCCCCCC(NCc1cccc(Cl)c1)=C1C(=O)OC(CO)C1=O (mixture of isomers) |
| 78.2 | 6.22 | > 100 | 5.13 | 4.69 | > 100 | 83.7 | – | CCCCCCCCCCCCCCCC(NCc1cccc(F)c1)=C1C(=O)OC(CO)C1=O (mixture of isomers) |
| > 100 | 15.4 | > 100 | 3.15 | 11.1 | > 100 | > 100 | – | CCCCCCCCCCCCCCCC(NCc1cccc(O)c1)=C1C(=O)OC(CO)C1=O (mixture of isomers) |
| > 100 | 10.2 | > 100 | 8.31 | 5.53 | > 100 | > 100 | – | CCCCCCCCCCCCCCCC(NCc1cccc(OC)c1)=C1C(=O)OC(CO)C1=O (mixture of isomers) |
| > 100 | 11.4 | > 100 | 6.55 | 5.13 | > 100 | > 100 | – | CCCCCCCCCCCCCCCC(NCc1cccc(N(C)C)c1)=C1C(=O)OC(CO)C1=O (mixture of isomers) |
| 56.7 | 7.35 | > 100 | 3.33 | 2.68 | > 100 | > 100 | 19.1 | CCCCCCCCCCCCCCCC(NCc1ccc(C)cc1)=C1C(=O)OC(CO)C1=O (mixture of isomers) |
| > 100 | 6.25 | > 100 | 5.52 | 3.63 | > 100 | > 100 | – | CCCCCCCCCCCCCCCC(NCc1ccc(Cl)cc1)=C1C(=O)OC(CO)C1=O (mixture of isomers) |
| > 100 | 10.7 | > 100 | 13.1 | – | > 100 | > 100 | – | CCCCCCCCCCCCCCCC(NCc1ccc(F)cc1)=C1C(=O)OC(CO)C1=O (mixture of isomers) |
| 44.1 | 6.86 | > 100 | 4.23 | 9.93 | > 100 | 68.1 | – | CCCCCCCCCCCCCCCC(NCc1ccc(O)cc1)=C1C(=O)OC(CO)C1=O (mixture of isomers) |
| > 100 | 11.7 | > 100 | 23.8 | 6.77 | > 100 | > 100 | – | CCCCCCCCCCCCCCCC(NCc1ccc(OC)cc1)=C1C(=O)OC(CO)C1=O (mixture of isomers) |
| > 100 | 8.67 | > 100 | 6.23 | 12 | > 100 | > 100 | 10.9 | CCCCCCCCCCCCCCCC(NCc1ccc(N(C)C)cc1)=C1C(=O)OC(CO)C1=O (mixture of isomers) |
| > 100 | 12.3 | > 100 | 13.5 | 10.2 | > 100 | > 100 | – | CCCCCCCCCCCCCCCC(NCc1ccccc1Cl)=C1C(=O)OC(CO)C1=O (mixture of isomers) |
| 47.1 | 12.6 | > 100 | – | 8.93 | > 100 | > 100 | – | CCCCCCCCCCCCCCCC(NCc1ccccc1F)=C1C(=O)OC(CO)C1=O (mixture of isomers) |
| > 100 | 19 | > 100 | 12.1 | 6.6 | > 100 | > 100 | – | CCCCCCCCCCCCCCCC(NCc1ccccc1OC)=C1C(=O)OC(CO)C1=O (mixture of isomers) |
| > 100 | 8.5 | > 100 | 5.75 | 5.19 | > 100 | > 100 | – | CCCCCCCCCCCCCCCC(NCc1ccccc1N(C)C)=C1C(=O)OC(CO)C1=O (mixture of isomers) |
